In ChEMBL document CHEMBL4406838, “Neurobehavioral investigation and acetylcholinesterase inhibitory activity study for some new coumarin derivatives” (Eur J Med Chem, 2019):
Calls of active or inactive are those of the source. The calls are words filed in the database; no cut-off is given here.

Assays:
[1] = target: Acetylcholinesterase (Homo sapiens, UniProt P22303); experiment: Inhibition of AChE (unknown origin) using acetylthiocholine iodide as substrate by Ellman's method
[2] = test system: Mus musculus; experiment: Cognitive enhancing effect in Swiss albino mouse model of STZ-induced cognition deficit assessed as reduction in escape latency time to find removed platform position at 3.2 mg/kg, po administrated for 15 days and measured for 4 days by Morris water maze test; type: functional, organism-based
[3] = test system: Mus musculus; experiment: Memory enhancement effect in Swiss albino mouse model of STZ-induced cognition deficit assessed as increase in exploratory preference at 3.2 mg/kg, po administrated for 15 days and measured for 5 mins by novel object recognition test; type: functional, organism-based
[4] = test system: Mus musculus; experiment: Cognitive enhancing effect in Swiss albino mouse model of STZ-induced cognition deficit assessed as increase in spontaneous alteration at 3.2 mg/kg, po administrated for 15 days and measured for 8 mins by Y-maze test; type: functional, organism-based
[5] = test system: Mus musculus; experiment: Neuroprotective activity in Swiss albino mouse model of STZ-induced cognition deficit assessed as reduction in Abeta42 deposition level in brain at 3.2 mg/kg, po administrated for 15 days by ELISA; type: functional, organism-based
[6] = test system: Mus musculus; experiment: Cognitive enhancing effect in Swiss albino mouse model of STZ-induced cognition deficit assessed as increase in time spent in target quadrant at 3.2 mg/kg, po administrated for 15 days and measured at 5th day of training session for 60 secs by Morris water maze test; type: functional, organism-based
[7] = test system: Mus musculus; experiment: Cognitive enhancing effect in Swiss albino mouse model of STZ-induced cognition deficit assessed as reduction in escape latency time to find removed platform position at 3.7 mg/kg, po administrated for 15 days and measured for 4 days by Morris water maze test; type: functional, organism-based
[8] = test system: Mus musculus; experiment: Cognitive enhancing effect in Swiss albino mouse model of STZ-induced cognition deficit assessed as increase in time spent in target quadrant at 3.7 mg/kg, po administrated for 15 days and measured at 5th day of training session for 60 secs by Morris water maze test; type: functional, organism-based
[9] = test system: Mus musculus; experiment: Neuroprotective activity in Swiss albino mouse model of STZ-induced cognition deficit assessed as reduction in Abeta42 deposition level in brain at 3.7 mg/kg, po administrated for 15 days by ELISA; type: functional, organism-based
[10] = test system: Mus musculus; experiment: Memory enhancement effect in Swiss albino mouse model of STZ-induced cognition deficit assessed as increase in exploratory preference at 3.7 mg/kg, po administrated for 15 days and measured for 5 mins by novel object recognition test; type: functional, organism-based
[11] = test system: Mus musculus; experiment: Cognitive enhancing effect in Swiss albino mouse model of STZ-induced cognition deficit assessed as increase in spontaneous alteration at 3.7 mg/kg, po administrated for 15 days and measured for 8 mins by Y-maze test; type: functional, organism-based
[12] = test system: Mus musculus; experiment: Cognitive enhancing effect in Swiss albino mouse model of STZ-induced cognition deficit assessed as reduction in escape latency time to find removed platform position at 2.5 mg/kg, po administrated for 15 days and measured for 4 days by Morris water maze test; type: functional, organism-based
[13] = test system: Mus musculus; experiment: Memory enhancement effect in Swiss albino mouse model of STZ-induced cognition deficit assessed as increase in exploratory preference at 2.5 mg/kg, po administrated for 15 days and measured for 5 mins by novel object recognition test; type: functional, organism-based
[14] = test system: Mus musculus; experiment: Cognitive enhancing effect in Swiss albino mouse model of STZ-induced cognition deficit assessed as increase in time spent in target quadrant at 2.5 mg/kg, po administrated for 15 days and measured at 5th day of training session for 60 secs by Morris water maze test; type: functional, organism-based
[15] = test system: Mus musculus; experiment: Cognitive enhancing effect in Swiss albino mouse model of STZ-induced cognition deficit assessed as increase in spontaneous alteration at 2.5 mg/kg, po administrated for 15 days and measured for 8 mins by Y-maze test; type: functional, organism-based
[16] = test system: Mus musculus; experiment: Neuroprotective activity in Swiss albino mouse model of STZ-induced cognition deficit assessed as reduction in Abeta42 deposition level in brain at 2.5 mg/kg, po administrated for 15 days by ELISA; type: functional, organism-based

Sequence of Acetylcholinesterase (P22303 whole entry): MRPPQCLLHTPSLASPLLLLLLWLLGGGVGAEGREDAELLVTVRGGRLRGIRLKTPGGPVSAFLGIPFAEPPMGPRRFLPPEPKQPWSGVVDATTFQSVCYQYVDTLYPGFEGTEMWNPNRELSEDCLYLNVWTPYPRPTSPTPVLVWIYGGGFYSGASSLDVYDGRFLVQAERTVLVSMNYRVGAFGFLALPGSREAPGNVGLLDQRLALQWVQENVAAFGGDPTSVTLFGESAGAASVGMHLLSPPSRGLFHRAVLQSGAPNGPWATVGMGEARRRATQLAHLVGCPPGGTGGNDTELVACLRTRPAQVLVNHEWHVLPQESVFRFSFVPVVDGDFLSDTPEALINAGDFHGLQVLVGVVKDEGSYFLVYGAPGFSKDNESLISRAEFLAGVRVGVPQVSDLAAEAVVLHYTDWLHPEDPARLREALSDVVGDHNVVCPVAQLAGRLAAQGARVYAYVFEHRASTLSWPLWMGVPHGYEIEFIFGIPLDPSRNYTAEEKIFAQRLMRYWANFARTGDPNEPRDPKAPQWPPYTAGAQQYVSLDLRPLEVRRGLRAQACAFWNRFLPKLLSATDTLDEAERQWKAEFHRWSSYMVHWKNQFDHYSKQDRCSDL

Row | SMILES | IC50 [1] [nM] | further results
1 | COc1ccc(C(=O)CNc2ccc3oc(=O)ccc3c2)cc1 | 55 | Activity [2]: Active; Activity [3]: Active; Activity [4]: Active; Activity [5]: Active; Activity [6]: Active
2 | O=C(CNc1ccc2oc(=O)ccc2c1)N1CCN(c2ccccc2)CC1 | 80 | –
3 | O=C1N/C(=N\c2ccc3oc(=O)ccc3c2)S/C1=C/c1ccc(Br)cc1 | 276 | –
4 | COc1ccc(/C=C2/S/C(=N/c3ccc4oc(=O)ccc4c3)NC2=O)cc1 | 49.8 | –
5 | O=C(CNc1ccc2oc(=O)ccc2c1)N1CCOCC1 | 37 | Activity [7]: Active; Activity [8]: Active; Activity [9]: Active; Activity [10]: Active; Activity [11]: Active
6 | O=C1N/C(=N\c2ccc3oc(=O)ccc3c2)S/C1=C/c1ccccc1 | 94.1 | –
7 | CSc1ccc(/C=C2/S/C(=N/c3ccc4oc(=O)ccc4c3)NC2=O)cc1 | 151 | –
8 | CSc1ccc(/C=N/c2ccc3oc(=O)ccc3c2)cc1 | 172 | –
9 | COc1ccc(NCC(=O)Nc2ccc3oc(=O)ccc3c2)cc1 | 55.2 | –
10 | CN(C)c1ccc(/C=C2/S/C(=N/c3ccc4oc(=O)ccc4c3)NC2=O)cc1 | 84 | –
11 | O=c1ccc2cc(/N=C/c3ccc(Br)cc3)ccc2o1 | 56.9 | –
12 | O=C1N/C(=N\c2ccc3oc(=O)ccc3c2)S/C1=C/c1ccc(Cl)cc1 | 173 | –
13 | O=c1ccc2cc(/N=C/c3ccc(F)cc3)ccc2o1 | 226 | –
14 | O=C(CNc1ccc(F)cc1)Nc1ccc2oc(=O)ccc2c1 | 62 | –
15 | CN(C)c1ccc(/C=N/c2ccc3oc(=O)ccc3c2)cc1 | 41 | Activity [12]: Active; Activity [13]: Active; Activity [14]: Active; Activity [15]: Active; Activity [16]: Active
16 | CSc1ccc(C2SCC(=O)N2c2ccc3oc(=O)ccc3c2)cc1 (stereo not drawn) | 311 | –
17 | O=c1ccc2cc(/N=C/c3ccccc3)ccc2o1 | 114 | –
18 | COc1ccc(C2SCC(=O)N2c2ccc3oc(=O)ccc3c2)cc1 (stereo not drawn) | 71.1 | –
19 | O=C1CSC(c2ccc(F)cc2)N1c1ccc2oc(=O)ccc2c1 (stereo not drawn) | 102 | –
20 | O=C(CNc1ccc2oc(=O)ccc2c1)c1ccccc1 | 148 | –
21 | COc1ccc(/C=N/c2ccc3oc(=O)ccc3c2)cc1 | 135 | –
22 | O=C1N/C(=N\c2ccc3oc(=O)ccc3c2)S/C1=C/c1ccc(F)cc1 | 216 | –
23 | O=c1ccc2cc(/N=C/c3ccc(Cl)cc3)ccc2o1 | 78.9 | –
